Data published in patent publication US5106951A, “Antibody conjugates” (NeoRx Corporation, priority 1989, dated 1992).

How the values were obtained:
Experiment in all cases: Binding of doxorubicin by synthetic oligopeptide, absorbance titration
[1] = molecular target: synthetic oligopeptide, Peptide 8, DK(Fmoc)GK(Fmoc)DGGC (DK(Fmoc)GK(Fmoc)DGGC-amide); conditions: 50 μM doxorubicin in 0.1M phosphate buffer at pH 7.0, 475 nm, fit to single hyperbola; read-out: Kd (apparent dissociation constant)
Source text: (§1) Experiments have been conducted to assess the use of synthetic oligopeptides to bind the drug doxorubicin. Binding was followed by changes in the visible spectrum of doxorubicin, and analyzed by titrating the drug absorption spectrum at 475 nm or 565 nm with varying concentrations of peptide, in pH 7.0 0.1M phosphate buffer. Binding curves were fit to a single hyperbola with the program Enzfitter (Elsevier-Biosoft). These peptides were designed to test the effectiveness in intercalating doxorubicin of a 1,3-spacing between amino acids containing aromatic groups in their side chains (i.e., a single non-aromatic amino acid intervenes between the two residues having aromatic side chains). The amino acids are C, cys; K, lys; W, trp; G, gly; E, glu; D, asp; Fmoc, 9-fluorenylmethoxycarbonyl, attached to the lysine epsilon-amino group; and MIANS, 2-(4'-maleimidylanilino)naphthalene-6-sulfonic acid attached to cysteine.
No absorbance change was observed when the oligopeptide was added to buffer in the absence of doxorubicin. […] Oligopeptide carrier alone was added to the reference cuvette. The binding constant is derived from the nonlinear least squares best fit to a single hyperbola using the program Enzfitter (Elsevier-Biosoft), yielding an apparent dissociation constant of 22 μM.

[2] = molecular target: synthetic oligopeptide, Peptide 9, EK(Fmoc)EK(Fmoc)EGGC; conditions: pH 7.0 0.1M phosphate buffer, doxorubicin absorption at 475 nm or 565 nm titrated with peptide
Source text: as §1

[3] = molecular target: synthetic oligopeptide, Peptide 7, EK(Fmoc)GK(Fmoc)EGGC; conditions: pH 7.0 0.1M phosphate buffer; 1,3 spacing of aromatic side chains
Source text: as §1

[4] = molecular target: synthetic oligopeptide, Peptide 3, […]-amide; conditions: pH 7.0 0.1M phosphate buffer, doxorubicin absorption at 475 nm or 565 nm titrated with peptide
Source text: as §1

[5] = molecular target: synthetic oligopeptide, Peptide 10, EEK(Fmoc)GK(Fmoc)EEGGC; conditions: pH 7.0 0.1M phosphate buffer; doxorubicin absorption at 475 nm or 565 nm titrated with peptide
Source text: as §1

[6] = molecular target: synthetic oligopeptide, Peptide 2, CKWGWGWK-amide; conditions: pH 7.0 0.1M phosphate buffer, doxorubicin absorption at 475 nm or 565 nm titrated with peptide
Source text: as §1

[7] = molecular target: synthetic oligopeptide, Peptide 1, CKWGWK-amide; conditions: pH 7.0 0.1M phosphate buffer, doxorubicin absorption at 475 nm or 565 nm titrated with peptide
Source text: as §1

[8] = molecular target: synthetic oligopeptide, Peptide 4, KK(Fmoc)GK(Fmoc)KGGC; conditions: pH 7.0 0.1M phosphate buffer, doxorubicin absorption at 475 nm or 565 nm titrated with peptide
Source text: as §1

[9] = molecular target: synthetic oligopeptide, Peptide 5, EK(Fmoc)GGK(Fmoc)EGGC; conditions: pH 7.0 0.1M phosphate buffer, 1,4 spacing of aromatic side chains
Source text: as §1, with “These peptides were designed to test the effectiveness in intercalating doxorubicin of a 1,3-spacing between amino acids containing aromatic groups in their side chains (i.e., a single non-aromatic amino acid intervenes between the two residues having aromatic side chains).” left out

[10] = molecular target: synthetic oligopeptide, Peptide 6, EK(Fmoc)K(Fmoc)EGGC; conditions: pH 7.0 0.1M phosphate buffer, 1,2 spacing of aromatic side chains
Source text: as §1, with “These peptides were designed to test the effectiveness in intercalating doxorubicin of a 1,3-spacing between amino acids containing aromatic groups in their side chains (i.e., a single non-aromatic amino acid intervenes between the two residues having aromatic side chains).” left out

[11] = test system: synthetic oligopeptide, Peptide 11, EC(MIANS)GC(MIANS)EGGC(Acm)
Source text: as §1
This oligopeptide was prepared by first synthesizing the oligopeptide ECGCEGGC(Acm), wherein "Acm" represents an acetamidomethyl protecting group. The synthesis was conducted using the solid phase methodology of Barany and Merrifield, supra, and Houghten, R. A., Proc Nat. Acad. Sci. USA 82:5131, 1985. The number of cysteine thiols per peptide was 1.8 as measured by titration with Ellman's reagent. […]
The peptide concentration was determined with ninhydrin. […]

COc1cccc2c1C(=O)c1c(O)c3c(c(O)c1C2=O)C[C@@](O)(C(=O)CO)C[C@@H]3O[C@H]1C[C@H](N)[C@H](O)[C@H](C)O1 [Doxorubicin, doxorubicin]
Kd [1]: 22 µM
Kd [2]: no detectable
Kd ([2]; listed as doxorubicin): binding is not observed
Kd [3]: 280 µM
Kd [4]: same
Kd ([4]; listed as doxorubicin): no detectable binding
Kd [5]: 33 µM
Kd [6]: same
Kd ([6]; listed as doxorubicin): no detectable binding
Kd [7]: no detectable
Kd ([7]; listed as doxorubicin): no detectable binding
Kd [8]: same
Kd ([8]; listed as doxorubicin): no detectable binding
Kd [9]: same
Kd ([9]; listed as doxorubicin): the same result is obtained
Kd [10]: same
Kd ([10]; listed as doxorubicin): undetectable binding
improvement of binding of doxorubicin by MIANS side chain versus FMOC ([11]; MIANS peptide compared with FMOC peptide, 1,3 spacing): about 6 fold
Kd ([11]; pH 7.0 0.1M phosphate buffer, at 565 or 580 nm, read-out: Kd (best-fit apparent dissociation constant)): 48 µM
